# Experimental data as given in patent US20020082262A1, “Substituted bicyclic compounds for treating multidrug resistance” (priority 2000, published 2002).
# System: NIH-MDR1-G185 cells
# Assay: Fluorescent Substrate Accumulation Assay (BODIPY-FL Taxol accumulation)
# Type: cell-based
# Settings: MDR modulator 10 micromolar, BODIPY-FL Taxol 500 nM, 40 min at 37° C.; fluorescence in NIH-MDR1-G185 cells in presence / absence of modulator
# Procedure: Fluorescent Substrate Accumulation Assay NIH-MDR1-G185 cells (obtained from M. Gottesman, NIH) were harvested and resuspended in RPMI-1640 containing L-glutamine, 10% Cosmic Calf Serum and penicillin-streptomycin. Cell suspension aliquots of 175 microliters (1×10^5 cells) were added to individual wells of a 96 well microtiter plate and preincubated for 15 min at 37° C. with 20 microliters MDR modulator diluted in cell culture media to give a final concentration of 10 micromolar. Control wells received no modulating agent. BODIPY-FL Taxol (Molecular Probes, Eugene, Oreg.) was added to each well in 10 microliter aliquots to give a final concentration of 500 nM and cells were incubated for 40 min at 37° C. Cells were centrifuged at 100×g for 5 min at 4° C. and the cell pellet washed with 200 microliters cold PBS to remove fluorescent medium from wells. Cells were centrifuged once more, media removed, and cells resuspended in 200 microliters cold PBS. Fluorescence accumulation was measured in a fluorescence plate reader fitted with an excitation filter of 485 nm and an emission filter of 538 nm. BODIPY-FL taxol accumulation in the cells was calculated as follows: Accumulation Index=(fluorescence in NIH-MDR1-G185 cells in the presence of modulator)/(fluorescence in NIH-MDR1-G185 cells in absence of modulator)
row,Compound,Accumulation Index
1,1-[5-Phenyl-2-(3-phenyl-propyl)-pentanoic acid {4-[2-hydroxy-3-(quinolin-5-yloxy)-propyl]-piperazin-4-yl}-amide]piperidine [Example 10],8
2,"O=C(C(CCCc1ccccc1)CCCc1ccccc1)N1CCN(C2CCN(C[C@@H](O)COc3cccc4ncccc34)CC2)CC1 [Example7, 4-[5-phenyl-2-(3-phenyl-propyl)-pentanoic acid {1-[2-hydroxy-3-(quinolin-5-yloxy)-propyl]-piperazin-4-yl}-amide]piperidine]",9
3,O=C(C(CCCc1ccccc1)CCCc1ccccc1)N1CCC(NC2CCN(C[C@@H](O)COc3cccc4ncccc34)CC2)CC1 [Example 15],6
4,"O=C(CN1CCN(C[C@@H](O)COc2cccc3ncccc23)CC1)NC[C@H]1CC[C@H](C(=O)NC(CCCc2ccccc2)CCCc2ccccc2)CC1 [Example 22, N-{1-[2-(R)-hydroxy-3-(quinolin-5-yloxy)-propyl]-piperazine-4-acetyl}-trans-4-aminomethyl-1-cyclohexanecarboxylic acid [4-phenyl-1-(3-phenyl-propyl)-butyl]-amide]",7
5,"O=C(CN1CCN(C[C@@H](O)COc2cccc3ncccc23)CC1)N[C@@H](Cc1cccnc1)C(=O)N1CCC(C(=O)NC(CCCc2ccccc2)CCCc2ccccc2)CC1 [Example 27, 1-(N-{1-[2-(R)-hydroxy-3-(quinolin-5-yloxy)-propyl]-piperazine-4-acetyl}-[3-(3-pyridyl)-alanyl])-piperidine-4-carboxylic acid [4-phenyl-1(3-phenyl-propyl)-butyl]-amide]",8
